Results as given in patent US20110287442A1, “Tumor Antigen Protein, Gene, or Peptides from Topoisimerase 2 Alpha” (CATHOLIC UNIVERSITY INDUSTRY ACADEMIC COOPERATION FOUNDATION, priority 2010, published 2011).

Tested on: splenocytes from the mice vaccinated with Top2αC RNA/DCs
Assay: IFN-γ ELISA of splenocytes stimulated with Top2αC-derived peptides
Assay type: cell-based, mouse
Conditions: 1 μg/ml peptides, three days, compared to other peptides
Protocol: The 5 Top2αC-derived peptides binding to MHC class I molecules (H-2 Kb) with a high score were selected by BIMAS and […], and in order to determine T lymphocyte epitopes of Top2αC, splenocytes from the mice vaccinated with Top2αC RNA/DCs were stimulated with Top2αC-derived peptides, and then IFN-γ production was determined by ELISA.
Splenocytes (2×10^5 cells/200 μl) of a mouse vaccinated with Top2αC RNA/DCs were incubated with 1 μg/ml peptides in a round-bottomed 96-well plate. Three days later, the plate was centrifuged and 100 μl of the supernatant was removed from each well. The level of IFN-γ was determined by ELISA (eBioscience, San Diego, USA).

“DSDEDFSGL [p1327, Top2αC-derived peptide, location 1327-1355 as printed]” was tested, and the IFN-γ production was “higher level”.
